Assay results from US20100305068A1, “COMPOUNDS AND METHODS FOR MODULATING PROTEIN TRAFFICKING” (priority 2006, published 2010).
Like-named read-outs stand apart in the source and are kept apart here.

Tested on: pdr5 ypt1^ts cells
Assay: microbe, parasite or virus in culture
Format: cell-based, yeast
Conditions: for minimal effective concentration: Saccharomyces cerevisiae, read-out: ypt1-ts MRC (minimal rescue concentration); for optical density, ypt1-ts, 0.39: 0.39 μM compound; for optical density, ypt1-ts, 0.39 / optical density, ypt1-ts, 0.78 / optical density, ypt1-ts, 1.56 / optical density, ypt1-ts, 3.13 / optical density, ypt1-ts, 6.25 / optical density, ypt1-ts, 12.5 / optical density, ypt1-ts, 25: background (0 μM) 0.058; for optical density, ypt1-ts, 0.78: 0.78 μM compound; for optical density, ypt1-ts, 1.56: 1.56 μM compound; for optical density, ypt1-ts, 3.13: 3.13 μM compound; for optical density, ypt1-ts, 6.25: 6.25 μM compound; for optical density, ypt1-ts, 12.5: 12.5 μM compound; for optical density, ypt1-ts, 25: 25 μM compound
Text: The activity of the compounds as modulators of protein trafficking may be measured in the assays described herein that evaluate the ability of a compound to rescue an impairment in protein trafficking. For example, the yeast mutant cell line ypt1^ts can be used to identify compounds that rescue cells from the lethal phenotype of a mutant YPT1 allele (see, e.g., Examples and Schmitt et al. (1988) Cell 53:635-47). The activity may be measured, for example, in a whole yeast cell assay using 384-well screening protocol and an optical density measurement.
The yeast mutant cell line ypt1^ts suppresses, in a temperature dependent fashion, the dominant-lethal phenotype of a mutant YPT1 allele (Schmitt et al. (1988) Cell 53:635-47). ypt1^ts cells grow normally at temperatures up to 30° C., but are growth arrested at 37° C. (Id.).
A library of compounds (“The Spectrum Collection”) obtained from Microsource Discovery Systems, Inc. (Gaylordsville, Conn.) was screened to assess the ability of individual compounds to restore growth of ypt1^ts cells. Screening was carried out using ypt1^ts cells containing a mutation in the pdr5 gene (resulting in inactivation of a membrane efflux pump). The effect of the compounds was measured in pdr5 ypt1^ts cells cultured at 37° C.

[1] = Table 3, 3.13 uM compound, 37° C., background (0 uM) 0.077
[2] = Table 3, 12.5 uM compound, 37° C., background (0 uM) 0.077
[3] = Table 3, 50 uM compound, 37° C., background (0 uM) 0.077
[4] = Table 2, lowest concentration tested giving growth above the 0 μM background, 37° C.

| Compound | optical density, 3.13 uM [1] | optical density, 12.5 uM [2] | optical density, 50 uM [3] | also measured |
| --- | --- | --- | --- | --- |
| C[C@]12CCC(=O)C[C@@H]1CC[C@@H]1[C@@H]2CC[C@]2(C)C(=O)CC[C@@H]12 [5alpha- ANDROSTAN- 3,17-DIONE] | – | – | – | optical density, 3.13 uM: 0.11; optical density, 12.5 uM: 0.16; optical density, 50 uM: 0.319 |
| C=C1C([C@@]2(C)[C@@H](C)CC(=O)C(C)(C)[C@@H]2C(OC(C)=O)C(=O)OC)CC[C@@]2(C)[C@H](c3ccoc3)OC(=O)C[C@]12O (some centres unmarked) [6-ACETOXY- […] METHYL ESTER] | 0.131 | 0.364 | 0.489 | – |
| C=C1C2CC[C@@]3(C)[C@H](c4ccoc4)OC(=O)C[C@]13O[C@H]1CC(=O)C(C)(C)[C@H](C(O)C(=O)OC)[C@@]21C (some centres unmarked) [6-HYDROXY- […] METHYL ESTER] | 0.232 | 0.561 | 0.626 | – |
| COc1ccc2c(=O)cc(-c3ccccc3OC)oc2c1 [7,2′- DIMETHOXY- FLAVONE] | 0.098 | 0.156 | 0.3 | – |
| COc1ccc(-c2coc3cc(OC)ccc3c2=O)cc1 [7,4′- DIMETH- OXYISO- FLAVONE] | 0.222 | 0.551 | 0.513 | – |
| CC1(C)C(=O)C=C[C@@]2(C)C1CC(=O)[C@@]1(C)C3=CC(=O)O[C@@H](c4ccoc4)[C@]3(C)CCC12 (some centres unmarked) [7-DEACETOXY- 7-OXODEOXY- GEDUNIN] | 0.335 | 0.604 | 0.67 | – |
| CC1(C)C(=O)C=C[C@]2(C)[C@H]3CC[C@@]4(C)[C@H](c5ccoc5)OC(=O)[C@H]5O[C@]54[C@]3(C)C=C[C@@H]12 [7-DESACETOXY-6,7- DEHYDROGEDUNIN] | – | – | – | minimal effective concentration [4]: 12.5 µM; optical density, ypt1-ts, 0.39 (Table 2, 37° C.): 0.094; optical density, ypt1-ts, 0.78 (Table 2, 37° C.): 0.071; optical density, ypt1-ts, 1.56 (Table 2, 37° C.): 0.074; optical density, ypt1-ts, 3.13 (Table 2, 37° C.): 0.093; optical density, ypt1-ts, 6.25 (Table 2, 37° C.): 0.099; optical density, ypt1-ts, 12.5 (Table 2, 37° C.): 0.171; optical density, ypt1-ts, 25 (Table 2, 37° C.): 0.308 |
| COc1ccc(-c2coc3c(OC)c(O)ccc3c2=O)cc1 [7-HYDROXY- 8,4′-DIMETH- OXYISO- FLAVONE] | 0.121 | 0.151 | 0.398 | – |
| COc1ccccc1-c1cc(=O)c2cccc(OC)c2o1 [8,2′- DIMETHOXY- FLAVONE] | 0.083 | 0.234 | 0.674 | – |
| COC(=O)C[C@H]1C(C)(C)C2(O)OC34CC2C(=O)[C@]1(C)C3CC[C@]1(C)C4=CC(=O)O[C@H]1c1ccoc1 (stereo partly drawn) [8beta- HYDROXY- CARAPIN, 3,8- HEMIACETAL] | 0.151 | 0.383 | 0.486 | – |
| Cc1ccc2c(c1)CC[C@H]1CC(=O)CC[C@]21C [13-METHYL- 4,4-BISNOR- 8,11,13- PODO- […]- 3-ONE] | 0.082 | 0.152 | 0.424 | – |
| COc1cccc2c1CCC1CC(=O)CC[C@]21C (some centres unmarked) [14-METHOXY-4,4- BISNOR-8,11,13- PODOCARPATRIEN-3- ONE] | – | – | – | minimal effective concentration [4]: 12.5 µM; optical density, ypt1-ts, 0.39 (Table 2, 37° C.): 0.088; optical density, ypt1-ts, 0.78 (Table 2, 37° C.): 0.074; optical density, ypt1-ts, 1.56 (Table 2, 37° C.): 0.075; optical density, ypt1-ts, 3.13 (Table 2, 37° C.): 0.088; optical density, ypt1-ts, 6.25 (Table 2, 37° C.): 0.096; optical density, ypt1-ts, 12.5 (Table 2, 37° C.): 0.191; optical density, ypt1-ts, 25 (Table 2, 37° C.): 0.48 |
| COC(=O)C[C@H]1C(C)(C)C(=O)[C@@H]2CC3=C4CC(OC)O[C@@H](c5ccoc5)[C@]4(C)CCC3[C@@]1(C)C2=O (some centres unmarked) [16-DEOXO- MEXICANOLIDE 16-METHYL ETHER] | 0.3 | 0.528 | 0.55 | – |
| CC(C)c1ccc2c(c1)CCC1[C@](C)(CN)CCC[C@]21C.O=S(=O)(O)O (some centres unmarked) [18-AMINO ABIETA- 8,11,13- TRIENE SULFATE] | 0.055 | 0.06 | 0.378 | – |
| COc1ccc2cc([C@H](C)C(=O)O)ccc2c1 [(+)NAPROXEN, reference compound] | – | – | – | minimal effective concentration: 25 µM |
